Values after ≈ are worked out from the molar mass of the structure shown.
Tests used:
[1] = tested on: Staphylococcus aureus (ATCC29213, SA); test: Minimal inhibitory concentration (MIC), SA; assay type: cell-based; details: for MIC: Staphylococcus aureus, ATCC29213, Staphylococcus aureus ATCC29213, read-out: MIC SA; for MIC SA: Staphylococcus aureus ATCC29213
Method: (§1) The minimal inhibitory concentration (MIC) of tested compounds was determined following the NCCLS standard. The experiments were conducted in 96-well microtiter plates using two-fold dilutions in Muller-Hilton broth with (Streptococcus pneumonia) or without blood (Bacillus subtilis, Enterococcus faecalis, Staphylococcus aureus, Escherichia coli, MRSA, Actinetobacter baumannii, Pseudomonas aeruginosa, Stenotrophomonas maltophilia, and Mycobacterium smegmatis). Exponentially growing cells at 5×10^5 cells/ml were incubated with test compounds at various concentrations. After an 18 h to 24 h incubation at 37° C., MIC was determined as the minimal concentration of the compound that prevents bacterial growth.

[2] = tested on: methicillin-resistant Staphylococcus aureus (ATCC33592, MRSA); test: Minimal inhibitory concentration (MIC), MRSA; assay type: cell-based; details: methicillin-resistant Staphylococcus aureus ATCC33592; for MIC: Staphylococcus aureus, read-out: MIC MRSA
Method: as §1

[3] = tested on: Mycobacterium smegmatis (ATCC11565, MS); test: Minimal inhibitory concentration (MIC), MS; assay type: cell-based; details: for MIC: Mycolicibacterium smegmatis, ATCC11565, Mycobacterium smegmatis ATCC11565, read-out: MIC MS; for MIC MS: Mycobacterium smegmatis ATCC11565
Method: as §1

[4] = target: T1, penicillin-binding protein 1b from E. coli (transglycosylase) (Escherichia coli, UniProt P02919); test: Lipid II polymerization / transglycosylase (TG) activity assay; assay type: biochemical; details: for TG Activity at various concentration of cmpd: 25 μM: 25 μM compound; for TG Activity at various concentration of cmpd: 25 μM / TG Activity at various concentration of cmpd: 50 μM / TG Activity at various concentration of cmpd: 100 μM: TG activity remaining (0% = full inhibition); for TG Activity at various concentration of cmpd: 50 μM: 50 μM compound; for TG Activity at various concentration of cmpd: 100 μM: 100 μM compound; for remaining activity at 50 µM: read-out: TG Activity at various concentration of cmpd: 50 μM; for remaining activity at 100 µM: read-out: TG Activity at various concentration of cmpd: 100 μM
T1 construct: PBP1b[58-804] was amplified from E. coli genomic DNA and cloned into the expression vector pET15b; His6 (N, cleaved yes); made in house; host or cells: E. coli BL21(DE3)
Method: Lipid II polymerization assays were carried out by incubating 100 μM fluorophore-labeled lipid II and penicillin-binding protein 1b from E. coli in tubes containing 10 ng/μL N-acetyl muramidase in 50 mM Tris.HCl (pH 8.0), 10 mM MgCl2, 0.1% Triton X-100, 10% DMSO, and 15% MeOH for 30 minutes (Van Nieuwenhze et al. J Am Chem Soc 2002, 124, 3656.). The fluorophore can be dansyl chloride, NBD, BODIPY, fluorescein. Reaction supernatants were then injected onto an anion-exchange HPLC column (SAX1, Supelco Co.) and eluted with a linear gradient of ammonium acetate (20 mM to 0.5 M) in methanol. The eluant was monitored for fluorescence with λex=466 nm and λem=535 nm.
Purified protein was concentrated in 20 mM Tris-HCl (pH 8.0), 300 mM NaCl, and 1 mM DDM. Instead of using Dansyl lipid II, 6-(N-(7-nitrobenz-2-oxa-1,3-diazol-4-yl)amino) hexanoyl (NBD)-labeled Lipid II was prepared as described (Taubes G (2008) Science 321:356-361; Payne D J (2008) Science 321:1644-1645) and used as a substrate to measure TG enzymatic activity, with approach similar to what has been described previously (Holtje J V (1998) Microbiol Mol Biol Rev 62:181-203). Assays were carried out by using the following condition: NBD-Lipid II, 20 nM protein, 50 mM Tris HCl (pH 8.0), 10 mMCaCl2, 0.085% decyl PEG (Anatrace), and 15% MeOH at 37° C. for 0, 1, 3, 5, 7, 9, 20, and 30 min. The concentration of NBD-Lipid II was varied from 1 to 100 μM to determine the rate of the TG activity. After the reaction, 200 μM moenomycin was added to stop the reaction, and 13 μM muramidase (Sigma-Aldrich) was added to digest the TG products to result in NBD-Lipid II without lipid tails. The fluorescent signal decrease of substrate and increase of NBD-Lipid II without lipid tails were detected by anion-exchange column SAX1 (Supelco) on HPLC (Hitachi). The elution procedures was a linear gradient of ammonium acetate (20 mM to 1 M) in MeOH monitored at λexcitation=466 nm and λemission=535 nm. The kinetic parameter was estimated by following the Michaelis-Menten equation. To investigate the importance of transmembrane (TM) helix, PBP1b and PBP1bΔTM (residues Met-1 to Leu-87 were removed) were extracted with the buffer containing 20 mM Tris-HCl (pH 8.0), 300 mM NaCl, and 13 mM FOS-CHOLINE-14 (Anatrace). The protein was purified by nickel chelation chromatography in the presence of 1 mM DDM. The activity assay was carried out by using the following condition: 12 μM NBD-Lipid II, 20 nM protein, 50 mM Tris-HCl (pH 8.0), 10 mM CaCl2, 0.085% decyl PEG, and 15% MeOH at 37° C. for time 0, 1, 3, 5, 7, 9, 20, and 30 min. The initial velocity was used to compare the activity of full-length PBP1b and PBP1bΔTM.

T1 sequence (P02919 58-804): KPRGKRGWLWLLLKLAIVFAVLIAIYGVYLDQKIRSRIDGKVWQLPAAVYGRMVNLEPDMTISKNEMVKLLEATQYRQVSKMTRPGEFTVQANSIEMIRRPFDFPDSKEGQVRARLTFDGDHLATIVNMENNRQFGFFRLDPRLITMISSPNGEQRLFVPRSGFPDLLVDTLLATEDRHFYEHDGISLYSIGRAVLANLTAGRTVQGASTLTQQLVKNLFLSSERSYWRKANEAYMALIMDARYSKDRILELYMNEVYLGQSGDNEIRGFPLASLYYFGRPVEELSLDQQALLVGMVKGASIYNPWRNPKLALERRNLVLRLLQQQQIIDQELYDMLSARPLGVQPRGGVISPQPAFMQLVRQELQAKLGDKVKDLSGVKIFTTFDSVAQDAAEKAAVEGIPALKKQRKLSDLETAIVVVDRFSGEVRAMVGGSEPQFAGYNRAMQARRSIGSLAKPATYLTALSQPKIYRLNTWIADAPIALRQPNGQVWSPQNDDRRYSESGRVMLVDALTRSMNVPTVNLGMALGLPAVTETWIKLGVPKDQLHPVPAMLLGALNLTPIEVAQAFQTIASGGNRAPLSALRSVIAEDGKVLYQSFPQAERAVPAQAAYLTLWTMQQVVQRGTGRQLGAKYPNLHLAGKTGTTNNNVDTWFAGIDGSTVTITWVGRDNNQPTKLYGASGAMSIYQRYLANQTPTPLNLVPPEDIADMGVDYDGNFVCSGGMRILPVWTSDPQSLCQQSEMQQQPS

## O=C(Nc1cc(Cl)ccc1Cl)c1cc(Cl)cc(Cl)c1O [Compound 141]
[1]
  MIC: 1 µg/mL (≈ 2.85 µM)
[2]
  MIC: 0.5 µg/mL (≈ 1.42 µM)
[3]
  MIC: 2 µg/mL (≈ 5.7 µM)

## O=C(c1ccc(Cl)cc1)c1ccc(Oc2ccc(Cl)cc2)c(NC(=O)c2cc(I)cc(I)c2O)c1 [Compound 207]
[4]
  TG Activity at various concentration of cmpd: 25 μM: 20%
  TG Activity at various concentration of cmpd: 50 μM: 0%
[1]
  MIC SA: 8 µg/mL (≈ 11 µM)
[2]
  MIC MRSA: 4 µg/mL (≈ 5.48 µM)
[3]
  MIC MS: 32 µg/mL (≈ 43.8 µM)

## O=C(Nc1ccccc1Oc1ccccc1)c1cc(Br)cc(Br)c1 [Compound A2N2]
[4]
  TG Activity at various concentration of cmpd: 50 μM: 100%
  TG Activity at various concentration of cmpd: 100 μM: 100%
[1]
  MIC SA: >32 µg/mL

## Cc1ccc(C(C)C)c(Oc2cc(Cl)ccc2NC(=O)c2cc(Br)cc(Br)c2O)c1 [Compound 202]
[4]
  TG Activity at various concentration of cmpd: 25 μM: 20%
  TG Activity at various concentration of cmpd: 50 μM: 0%
[1]
  MIC SA: 1 µg/mL (≈ 1.81 µM)
[2]
  MIC MRSA: 1 µg/mL (≈ 1.81 µM)
[3]
  MIC MS: 1 µg/mL (≈ 1.81 µM)

## O=C(Nc1ccc([N+](=O)[O-])cc1)c1ccccc1O [Compound A3N5]
[4]
  remaining activity at 50 µM: 100%
  remaining activity at 100 µM: 100%
[1]
  MIC: 4 µg/mL (≈ 15.5 µM)

## O=C(Nc1cc(Cl)ccc1Oc1ccccc1)c1ccccc1O [Compound A3N1]
[4]
  TG Activity at various concentration of cmpd: 50 μM: 100%
  TG Activity at various concentration of cmpd: 100 μM: 100%
[1]
  MIC SA: 1 µg/mL (≈ 2.94 µM)

## O=C(Nc1ccccc1Oc1ccccc1)c1ccc(O)c(O)c1O [Compound A5N2]
[4]
  TG Activity at various concentration of cmpd: 50 μM: 100%
  TG Activity at various concentration of cmpd: 100 μM: 0%
[1]
  MIC SA: 8 µg/mL (≈ 23.7 µM)

## Cc1ccc(NC(=O)c2ccc(O)c(O)c2O)cc1Cl [Compound A5N3]
[4]
  remaining activity at 50 µM: 100%
  remaining activity at 100 µM: 0%
[1]
  MIC: 4 µg/mL (≈ 13.6 µM)

## O=C(Nc1cc(Cl)c(Cl)c(Cl)c1)c1cc(Cl)cc(Cl)c1O [Compound 142]
[1]
  MIC SA: 0.5 µg/mL (≈ 1.3 µM)
[2]
  MIC MRSA: 0.5 µg/mL (≈ 1.3 µM)
[3]
  MIC MS: 0.125 µg/mL (≈ 0.324 µM)

## COc1ccc(NC(=O)c2ccccc2O)cc1 [Compound A3N6]
[4]
  remaining activity at 50 µM: 100%
  remaining activity at 100 µM: 100%
[1]
  MIC: > 32 µg/mL

## Cc1ccc(NC(=O)c2ccccc2O)cc1Cl [Compound A3N3]
[4]
  remaining activity at 50 µM: 100%
  remaining activity at 100 µM: 100%
[1]
  MIC: 4 µg/mL (≈ 15.3 µM)

## O=C(Nc1cccc(Cl)c1)c1cc(Br)cc(Br)c1O [Compound 203]
[4]
  remaining activity at 50 µM: 100%
  remaining activity at 100 µM: 100%
[1]
  MIC: 2 µg/mL (≈ 4.93 µM)
[2]
  MIC: 2 µg/mL (≈ 4.93 µM)
[3]
  MIC: 4 µg/mL (≈ 9.87 µM)

## O=C(Nc1ccc(Cl)cc1)c1cc(Br)cc(Br)c1O [KTS-9]
[4]
  TG Activity at various concentration of cmpd: 50 μM: 100%
  TG Activity at various concentration of cmpd: 100 μM: 100%
[1]
  MIC SA: 1 µg/mL (≈ 2.47 µM)
[2]
  MIC MRSA: 1 µg/mL (≈ 2.47 µM)
[3]
  MIC MS: 2 µg/mL (≈ 4.93 µM)

## Cc1ccc(NC(=O)c2cc(Br)cc(Br)c2)cc1Cl [Compound A2N3]
[4]
  TG Activity at various concentration of cmpd: 50 μM: 100%
  TG Activity at various concentration of cmpd: 100 μM: 100%
[1]
  MIC SA: >32 µg/mL

## O=C(Nc1ccccc1Oc1ccccc1)c1ccc(O)cc1 [Compound A6N2]
[4]
  TG Activity at various concentration of cmpd: 50 μM: 100%
  TG Activity at various concentration of cmpd: 100 μM: 100%
[1]
  MIC SA: >32 µg/mL

## O=C(Nc1ccc(Cl)cc1)c1cc(Br)cc(Br)c1O [Compound A1N4]
[4]
  TG Activity at various concentration of cmpd: 50 μM: 100%
[1]
  MIC SA: 1 µg/mL (≈ 2.47 µM)

## Cc1ccc(C(C)C)c(Oc2ccc(Cl)cc2NC(=O)c2cc(Cl)cc(Cl)c2O)c1 [Compound 209]
[4]
  TG Activity at various concentration of cmpd: 25 μM: 60%
  TG Activity at various concentration of cmpd: 50 μM: 0%
[1]
  MIC SA: 1 µg/mL (≈ 2.15 µM)
[2]
  MIC MRSA: 0.25 µg/mL (≈ 0.538 µM)
[3]
  MIC MS: 0.5 µg/mL (≈ 1.08 µM)

## O=C(Nc1ccccc1Oc1ccccc1)c1ccccc1O [Compound A3N2]
[4]
  TG Activity at various concentration of cmpd: 50 μM: 100%
  TG Activity at various concentration of cmpd: 100 μM: 100%
[1]
  MIC SA: 8 µg/mL (≈ 26.2 µM)

## Cc1ccc(C(C)C)cc1Oc1ccc(Cl)cc1NC(=O)c1cc(Cl)ccc1O [Compound 205]
[4]
  TG Activity at various concentration of cmpd: 50 μM: 90%
[1]
  MIC SA: 0.5 µg/mL (≈ 1.16 µM)
[2]
  MIC MRSA: 0.5 µg/mL (≈ 1.16 µM)
[3]
  MIC MS: 1 µg/mL (≈ 2.32 µM)

## O=C(Nc1cc(Cl)ccc1Oc1ccccc1)c1ccc(O)cc1 [Compound A6N1]
[4]
  TG Activity at various concentration of cmpd: 50 μM: 100%
  TG Activity at various concentration of cmpd: 100 μM: 100%
[1]
  MIC SA: 16 µg/mL (≈ 47.1 µM)

## O=C(Nc1ccc(Cl)cc1)c1ccccc1O [Compound A3N4]
[4]
  remaining activity at 50 µM: 100%
  remaining activity at 100 µM: 100%
[1]
  MIC: 8 µg/mL (≈ 32.3 µM)

## Cc1ccc(NC(=O)c2ccc(O)cc2)cc1Cl [Compound A6N3]
[4]
  TG Activity at various concentration of cmpd: 50 μM: 100%
  TG Activity at various concentration of cmpd: 100 μM: 100%
[1]
  MIC SA: 32 µg/mL (≈ 122 µM)

## O=C(Nc1cc(Cl)ccc1Oc1ccccc1)c1ccc(O)c(O)c1O [Compound A5N1]
[4]
  TG Activity at various concentration of cmpd: 50 μM: 100%
  TG Activity at various concentration of cmpd: 100 μM: 0%
[1]
  MIC SA: 8 µg/mL (≈ 21.5 µM)

## Cc1ccc(NC(=O)c2ccccc2)cc1Cl [Compound A4N3]
[4]
  TG Activity at various concentration of cmpd: 50 μM: 100%
  TG Activity at various concentration of cmpd: 100 μM: 100%
[1]
  MIC SA: >32 µg/mL

## O=C(Nc1cc(Cl)ccc1Oc1ccccc1)c1cc(Br)cc(Br)c1 [Compound A2N1]
[4]
  TG Activity at various concentration of cmpd: 50 μM: 100%
  TG Activity at various concentration of cmpd: 100 μM: 100%
[1]
  MIC SA: >32 µg/mL

## O=C(Nc1ccccc1Oc1ccccc1)c1cc(Br)cc(Br)c1O [Compound A1N2]
[4]
  TG Activity at various concentration of cmpd: 50 μM: 100%
  TG Activity at various concentration of cmpd: 100 μM: 100%
[1]
  MIC SA: >32 µg/mL

## O=C(Nc1cc(Cl)ccc1Oc1ccccc1)c1ccccc1 [Compound A4N1]
[4]
  TG Activity at various concentration of cmpd: 50 μM: 100%
  TG Activity at various concentration of cmpd: 100 μM: 100%
[1]
  MIC SA: >32 µg/mL
